System: various cancers
Assay: Anti-proliferative effect of combinations, in vitro and in vivo
From the text: These cancers include, but are not limited to, lung cancer, small cell lung cancer, non-small cell lung cancer, colon cancer, breast cancer, pancreatic cancer, prostate cancer, renal cancer, cervical cancer, brain cancer, gastric/stomach cancer, uterine cancer, intestinal cancer, hepatic cancer, chronic myelogenous leukemia, melanoma, ovarian cancer, translocation-associated renal cell carcinoma (RCC), alveolar soft part sarcoma (ASPS), clear cell sarcoma (CCS), and hepatocellular carcinoma. The anti-proliferative effects of these combinational treatments are increased/enhanced in cell proliferative disorders and cancers in which the effected cells constitutively express or over-express c-Met. In addition, synergistic anti-proliferative effects are shown by (−)-trans-3-(5,6-dihydro-4H-pyrrolo[3,2,1-ij]quinolin-1-yl)-4-(1H-indol-3-yl) pyrrolidine-2,5-dione in combination with sorafenib in breast cancer, cervical cancer, lung cancer, small cell lung cancer, non-small cell lung cancer, melanoma, colon cancer, pancreatic cancer, renal cancer and gastric/stomach cancer; by (−)-trans-3-(5,6-dihydro-4H-pyrrolo[3,2,1-ij]quinolin-1-yl)-4-(1H-indol-3-yl)pyrrolidine-2,5-dione in combination with sunitinib in gastric/stomach cancer; by (−)-trans-3-(5,6-dihydro-4H-pyrrolo[3,2,1-ij]quinolin-1-yl)-4-(1H-indol-3-yl)pyrrolidine-2,5-dione in combination with erlotinib in lung cancer, small cell lung cancer, non-small cell lung cancer and colon cancer; and by (−)-trans-3-(5,6-dihydro-4H-pyrrolo[3,2,1-ij]quinolin-1-yl)-4-(1H-indol-3-yl)pyrrolidine-2,5-dione in combination with cisplatin in pancreatic cancer.

O=C1NC(=O)[C@@H](c2cn3c4c(cccc24)CCC3)[C@@H]1c1c[nH]c2ccccc12 [Agent A, (−)-trans-3-(5,6-dihydro-4H-pyrrolo[3,2,1-ij]quinolin-1-yl)-4-(1H-indol-3-yl)pyrrolidine-2,5-dione]
anti-proliferative effects in combination with sorafenib (breast, cervical, lung, small cell lung, non-small cell lung cancer, melanoma, colon, pancreatic, renal and gastric/stomach cancer): synergistic | anti-proliferative effects in combination with sunitinib (gastric/stomach cancer): synergistic | anti-proliferative effect in combination (in combination with sorafenib, sunitinib, erlotinib, gefitinib, cisplatin, carboplatin or capecitabine, various cancers, in vitro and in vivo): at least an additive | anti-proliferative effects in combination with erlotinib (lung, small cell lung, non-small cell lung and colon cancer): synergistic | anti-proliferative effects in combination with cisplatin (pancreatic cancer): synergistic
